{
  "source": "patent US4510144A",
  "about": "“Methods of imparting immunomodulating activity with dihydrothiazolo purine derivatives” (Newport Pharmaceuticals International, priority 1982, dated 1985)",
  "tested_on": "murine spleen cells, Con A induced (T-cells)",
  "experiment": "Con A induced lymphocyte proliferation in mouse spleen cells in vitro",
  "type": "cell-based, mouse (Balb/C)",
  "conditions": "for activity at 0.01 µg/mL / activity at 0.1 µg/mL / activity at 1 µg/mL / activity at 2.5 µg/mL / activity at 5 µg/mL / activity at 25 µg/mL / activity at 50 µg/mL: Mus musculus",
  "from_the_text": "(1) Mitogen-(Lipopolysaccharide, LPS or Con A) induced lymphocyte proliferation using murine spleen cells (in vitro)\n1. […] LPS is a mitogen which acts preferentially on B-cells. […] Con A is considered a T-cell mitogen.\n1. Balb/C male mice, 7-8 weeks old, are used up to 20-24 weeks of age.\n2. The animals are sacrificed by cervical dislocation and the animals' left sides swabbed with 70% ethanol. An incision is made between the lower ribs and pelvis, laterally from front to back, and the skin retracted. Aseptic technique is to be observed from this point on.\n3. The spleen is gently removed with sterile forceps. […] When all spleens have been collected and cleaned they are placed in a second petri dish containing 3 ml cold RPMI.\n4. Spleen cell suspensions are prepared by gentle mincing of the tissue with a sterile blade and filtering through #100 stainless steel mesh.\n6. An aliquot of the above suspension is prepared for cell counting as follows: 0.1 ml of suspension is diluted to 1.0 ml with 3% acetic acid and let stand at room temperature for at least five minutes. The sample is then diluted 1:100 with \"Isoton II\" (Curtis-Matheson Co.) and counted in a coulter counter.\nMURINE SPLENOCYTE STIMULATION WITH CONCANAVALIN A (CON A), LIPOPOLYSACCHARIDE (LPS), AND ALLOGENEIC SPLENOCYTES (LMC).\nThere is set forth below the standard procedure which should be modified according to the solubility and other properties of the particular compound tested.\nAdd ~10 ml RPMI to 1.79 g HEPES and vortex until completely dissolved. […] Allow to warm temperature before use.\n5. Con A (Calbiochem)--100 mg/ml NaCl injection solution (McGaw), filter, aliquot in 1 ml, and store at -70° C.\n8. Tritiated thymidine (^3 H-TdR, Schwartz-Mann, 6 Ci/mM). Remove a slightly larger volume of ^3 H-TdR than needed from vial with a 1 cc syringe and place volume in the cap of a small sterile plastic tube. […] Vortex thoroughly before adding to plates.\n1. Animals are sacrificed by cervical dislocation killing one from each group and processing the cells individually before killing the next animal. Swab each animal with 70% ethanol before surgery. […] Use 8 vertical strokes (or enough to break up all tissue) with Teflon-tipped homogenizer. Filter each sample through a 100 mesh screen into a 50 ml tube. […] After all samples have been spun, vortex each briefly and let sit for 1 hour. Vortex each sample ~5 seconds, waiting ~10 seconds between each sample. Let sit 5 minutes, then pipet cell suspension into 5 ml (12×75 mm) tube being careful not to remove any sediment. Remove 50 ul cell suspension using micropipetter, carefully wipe pipet tip with kimwipe and pipet into 20 ml Isoton in Coulter counter vial, rinsing pipet several times in the Isoton. Add 6 drops of CyMet and swirl vial to mix. Use the following Coulter counter settings: Amplification-1, Threshold-10, and Aperture Current-1. Clean counter with Isoterge the morning of experiment and count background before standardizing with CH 0.60 Hematology Controls. After cell counts are obtained, dilute to 6×10^6 cells/ml with supplemented RPMI and aliquot into 3 tubes for the 3 assays.\n1. Pipet 100 μl control media (supplemented RPMI) or appropriate dilution of mitogen (starting with lowest concentration) into microtiter plate using Titertek multi-channel pipetter. Place plates in 37° C. CO2 incubator with CO2 set at 0.5 after each plate has been pipetted. Pipet 100 μl responder cells into wells starting with most dilute mitogen concentration. Place plates in incubator as they are filled and after all plates are in incubator, let sit for 10-20 minutes. Wrap plates with plastic wrap, recover with top, replace in incubator, and reset CO2 to ~0.05. Save ~50 ml supplemented RPMI at 4° C. for thymidine dilution. After ~44 hours warm the RPMI to 37° C. in incubator. Dilute tritiated Thymidine 1:100 in warmed RPMI. Use Titertek to add 50 μl Thymidine to each well. Treat plates as above and incubate overnight (~18 hours).",
  "note": "Where two headings read alike, the source gives them in different places.",
  "data": [
    {"smiles": "Oc1ncnc2c1nc1n2CCS1", "note": "[NPT 16416, 3-hydroxy-7,8-dihydrothiazolo-[3,2e]-purine]", "values": [
      {"measurement": "activity at 0.01 µg/mL", "setting": "T-cell, drug 10 ng/ml, Con A 1000 ng/ml, drug/control, read-out: Hi Mitogen D/C Con A", "result": 104, "unit": "%"},
      {"measurement": "activity at 0.1 µg/mL", "setting": "T-cell, drug 100 ng/ml, Con A 1000 ng/ml, drug/control, read-out: Hi Mitogen D/C Con A", "result": 102, "unit": "%"},
      {"measurement": "activity at 1 µg/mL", "setting": "T-cell, drug 1,000 ng/ml, Con A 1000 ng/ml, drug/control, read-out: Hi Mitogen D/C Con A", "result": 103, "unit": "%"},
      {"measurement": "activity at 2.5 µg/mL", "setting": "T-cell, drug 2,500 ng/ml, Con A 1000 ng/ml, drug/control, read-out: Hi Mitogen D/C Con A", "result": 91, "unit": "%"},
      {"measurement": "activity at 5 µg/mL", "setting": "T-cell, drug 5,000 ng/ml, Con A 1000 ng/ml, drug/control, read-out: Hi Mitogen D/C Con A", "result": 101, "unit": "%"},
      {"measurement": "activity at 25 µg/mL", "setting": "T-cell, drug 25,000 ng/ml, Con A 1000 ng/ml, drug/control, read-out: Hi Mitogen D/C Con A", "result": 100, "unit": "%"},
      {"measurement": "activity at 50 µg/mL", "setting": "T-cell, drug 50,000 ng/ml, Con A 1000 ng/ml, drug/control, read-out: Hi Mitogen D/C Con A", "result": 99, "unit": "%"},
      {"measurement": "activity at 0.01 µg/mL", "setting": "read-out: Lo Mitogen D/C Con A", "result": 85, "unit": "%"},
      {"measurement": "activity at 0.1 µg/mL", "setting": "drug 100 ng/ml, Con A 375 ng/ml, drug/control, read-out: Lo Mitogen D/C Con A", "result": 105, "unit": "%"},
      {"measurement": "activity at 1 µg/mL", "setting": "drug 1,000 ng/ml, Con A 375 ng/ml, drug/control, read-out: Lo Mitogen D/C Con A", "result": 93, "unit": "%"},
      {"measurement": "activity at 1 µg/mL", "setting": "drug 1,000 ng/ml, Con A .375 μg/ml, read-out: Con A D/C (maximum values)", "result": 118, "unit": "%"},
      {"measurement": "activity at 2.5 µg/mL", "setting": "drug 2,500 ng/ml, Con A 375 ng/ml, drug/control, read-out: Lo Mitogen D/C Con A", "result": 98, "unit": "%"},
      {"measurement": "activity at 5 µg/mL", "setting": "drug 5,000 ng/ml, Con A 375 ng/ml, drug/control, read-out: Lo Mitogen D/C Con A", "result": 110, "unit": "%"},
      {"measurement": "activity at 25 µg/mL", "setting": "drug 25,000 ng/ml, Con A 375 ng/ml, drug/control, read-out: Lo Mitogen D/C Con A", "result": 113, "unit": "%"},
      {"measurement": "activity at 25 µg/mL", "setting": "drug 25,000 ng/ml, Con A .375 μg/ml, read-out: Con A D/C (maximum values)", "result": 118, "unit": "%"},
      {"measurement": "activity at 50 µg/mL", "setting": "drug 50,000 ng/ml, Con A 375 ng/ml, drug/control, read-out: Lo Mitogen D/C Con A", "result": 103, "unit": "%"},
      {"measurement": "CPM Incorp. + Con A", "setting": "drug 10 ng/ml, Con A 375 ng/ml", "result": 17.3, "unit": "CPM × 10^3"},
      {"measurement": "CPM Incorp. + Con A", "setting": "drug 10 ng/ml, Con A 1000 ng/ml", "result": 61.8, "unit": "CPM × 10^3"},
      {"measurement": "CPM Incorp. + Con A", "setting": "drug 100 ng/ml, Con A 375 ng/ml", "result": 20.6, "unit": "CPM × 10^3"},
      {"measurement": "CPM Incorp. + Con A", "setting": "drug 100 ng/ml, Con A 1000 ng/ml", "result": 60.8, "unit": "CPM × 10^3"},
      {"measurement": "CPM Incorp. + Con A", "setting": "drug 1,000 ng/ml, Con A 375 ng/ml", "result": 18.0, "unit": "CPM × 10^3"},
      {"measurement": "CPM Incorp. + Con A", "setting": "drug 1,000 ng/ml, Con A 1000 ng/ml", "result": 60.8, "unit": "CPM × 10^3"},
      {"measurement": "CPM Incorp. + Con A", "setting": "drug 2,500 ng/ml, Con A 375 ng/ml", "result": 19.1, "unit": "CPM × 10^3"},
      {"measurement": "CPM Incorp. + Con A", "setting": "drug 2,500 ng/ml, Con A 1000 ng/ml", "result": 54.0, "unit": "CPM × 10^3"},
      {"measurement": "CPM Incorp. + Con A", "setting": "drug 5,000 ng/ml, Con A 375 ng/ml", "result": 21.5, "unit": "CPM × 10^3"},
      {"measurement": "CPM Incorp. + Con A", "setting": "drug 5,000 ng/ml, Con A 1000 ng/ml", "result": 59.7, "unit": "CPM × 10^3"},
      {"measurement": "CPM Incorp. + Con A", "setting": "drug 25,000 ng/ml, Con A 375 ng/ml", "result": 22.1, "unit": "CPM × 10^3"},
      {"measurement": "CPM Incorp. + Con A", "setting": "drug 25,000 ng/ml, Con A 1000 ng/ml", "result": 59.0, "unit": "CPM × 10^3"},
      {"measurement": "CPM Incorp. + Con A", "setting": "drug 50,000 ng/ml, Con A 375 ng/ml", "result": 20.2, "unit": "CPM × 10^3"},
      {"measurement": "CPM Incorp. + Con A", "setting": "drug 50,000 ng/ml, Con A 1000 ng/ml", "result": 58.6, "unit": "CPM × 10^3"},
      {"measurement": "effect on Con A induced proliferation (T-cell response), in words", "setting": "in vitro", "result": "little or no effect"}
    ]}
  ]
}
